The values below come from ChEMBL document CHEMBL1909046, “DrugMatrix in vitro pharmacology data”.

Data set [1] in a line: DRUGMATRIX: Calcium Channel Type L, Benzothiazepine radioligand binding (ligand: [3H] Diltiazem). To be noted: Not Active = under 50% inhibition at 10 µM. The class given is cell membranes, Rattus norvegicus, Wistar, Brain, Membrane.
The next data set has as its target T1, B2 bradykinin receptor (Homo sapiens, UniProt P30411). Note: in other assays of this panel Not Active means under 50% inhibition at 10 µM.
T1 sequence (P30411 whole entry): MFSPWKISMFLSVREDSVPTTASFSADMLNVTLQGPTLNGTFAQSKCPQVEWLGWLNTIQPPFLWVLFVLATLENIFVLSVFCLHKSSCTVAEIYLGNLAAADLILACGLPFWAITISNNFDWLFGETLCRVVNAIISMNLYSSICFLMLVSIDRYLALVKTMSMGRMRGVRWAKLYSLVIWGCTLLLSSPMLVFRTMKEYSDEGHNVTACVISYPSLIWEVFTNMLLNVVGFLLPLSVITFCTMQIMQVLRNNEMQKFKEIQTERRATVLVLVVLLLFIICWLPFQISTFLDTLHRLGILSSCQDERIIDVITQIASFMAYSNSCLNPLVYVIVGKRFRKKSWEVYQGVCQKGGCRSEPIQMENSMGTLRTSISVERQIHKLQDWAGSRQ
The class given is cell membranes, Membrane. The settings on record: chem-1.

The target of data set [2] is T2, Cysteinyl leukotriene receptor 1 (Homo sapiens, UniProt Q9Y271). Note: in other assays of this panel Not Active means under 50% inhibition at 10 µM.
T2 sequence (Q9Y271 whole entry): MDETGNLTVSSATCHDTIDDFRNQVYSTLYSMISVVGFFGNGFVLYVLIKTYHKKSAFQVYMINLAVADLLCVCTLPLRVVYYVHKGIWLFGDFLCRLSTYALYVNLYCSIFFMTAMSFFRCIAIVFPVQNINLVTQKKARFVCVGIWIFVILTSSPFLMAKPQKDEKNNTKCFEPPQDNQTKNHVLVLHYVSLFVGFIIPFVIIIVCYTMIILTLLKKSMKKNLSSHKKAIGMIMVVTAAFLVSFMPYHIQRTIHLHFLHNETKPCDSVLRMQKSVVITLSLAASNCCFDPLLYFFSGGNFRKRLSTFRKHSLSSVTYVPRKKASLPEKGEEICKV
The class given is cell membranes, CHO-K1, Membrane.

The target of data set [3] is T3, Cholecystokinin receptor type A (Homo sapiens, UniProt P32238). Note: in other assays of this panel Not Active means under 50% inhibition at 10 µM.
T3 sequence (P32238 whole entry): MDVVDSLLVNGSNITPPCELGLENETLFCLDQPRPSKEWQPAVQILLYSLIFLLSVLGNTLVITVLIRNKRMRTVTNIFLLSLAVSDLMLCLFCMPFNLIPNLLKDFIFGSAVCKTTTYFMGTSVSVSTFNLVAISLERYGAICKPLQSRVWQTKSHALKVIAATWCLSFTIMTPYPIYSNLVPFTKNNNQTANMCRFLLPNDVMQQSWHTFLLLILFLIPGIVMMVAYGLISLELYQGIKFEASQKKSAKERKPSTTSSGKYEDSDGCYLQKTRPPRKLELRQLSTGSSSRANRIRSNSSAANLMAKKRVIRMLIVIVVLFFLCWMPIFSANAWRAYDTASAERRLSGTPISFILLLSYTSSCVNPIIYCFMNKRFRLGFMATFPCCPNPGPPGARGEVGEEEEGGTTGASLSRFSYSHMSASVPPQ
The class given is cell membranes, Membrane. To be noted: 1321-n1.

The target in a further data set is T4, Leukotriene C4 synthase (Cavia porcellus, UniProt A6XA80).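 Note: enzyme inhibition assay of leukotriene C4 synthase, using LTA4 as the substrate; in other assays of this panel Not Active means under 50% inhibition at 10 µM.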
T4 sequence (A6XA80 whole entry): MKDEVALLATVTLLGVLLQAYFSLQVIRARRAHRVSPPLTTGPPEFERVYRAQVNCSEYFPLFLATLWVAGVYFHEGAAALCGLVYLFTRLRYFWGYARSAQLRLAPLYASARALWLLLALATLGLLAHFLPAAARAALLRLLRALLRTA
Description: biochemical. The class given is tissue-based, Lung.

Data set [4] can be described thus: DRUGMATRIX: Tumor Necrosis Factor (TNF), Non-Selective radioligand binding (ligand: [125I] TNF-alpha). The class given is cell membranes, Membrane. To be noted: u-937; Not Active = under 50% inhibition at 10 µM.
Data set [5] addresses T5, Neuropeptide Y receptor type 2 (Homo sapiens, UniProt P49146).
T5 sequence (P49146 whole entry): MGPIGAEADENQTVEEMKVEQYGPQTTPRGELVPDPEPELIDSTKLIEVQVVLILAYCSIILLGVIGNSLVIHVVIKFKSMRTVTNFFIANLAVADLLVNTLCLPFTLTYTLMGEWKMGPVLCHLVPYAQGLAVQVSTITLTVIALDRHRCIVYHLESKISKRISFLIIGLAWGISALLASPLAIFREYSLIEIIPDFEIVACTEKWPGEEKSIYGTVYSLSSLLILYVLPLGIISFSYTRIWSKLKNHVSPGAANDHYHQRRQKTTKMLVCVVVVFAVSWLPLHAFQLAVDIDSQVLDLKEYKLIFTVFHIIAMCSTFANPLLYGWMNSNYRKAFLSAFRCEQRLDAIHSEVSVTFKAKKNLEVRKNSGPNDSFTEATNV
The class given is cell membranes, Membrane. To be noted: kan-ts.

The target of data set [6] is Voltage-gated inwardly rectifying potassium channel KCNH2 (Homo sapiens, UniProt Q12809). The settings on record: hek293. Note: in other assays of this panel Not Active means under 50% inhibition at 10 µM.
Chain of Voltage-gated inwardly rectifying potassium channel KCNH2 (Q12809 whole entry): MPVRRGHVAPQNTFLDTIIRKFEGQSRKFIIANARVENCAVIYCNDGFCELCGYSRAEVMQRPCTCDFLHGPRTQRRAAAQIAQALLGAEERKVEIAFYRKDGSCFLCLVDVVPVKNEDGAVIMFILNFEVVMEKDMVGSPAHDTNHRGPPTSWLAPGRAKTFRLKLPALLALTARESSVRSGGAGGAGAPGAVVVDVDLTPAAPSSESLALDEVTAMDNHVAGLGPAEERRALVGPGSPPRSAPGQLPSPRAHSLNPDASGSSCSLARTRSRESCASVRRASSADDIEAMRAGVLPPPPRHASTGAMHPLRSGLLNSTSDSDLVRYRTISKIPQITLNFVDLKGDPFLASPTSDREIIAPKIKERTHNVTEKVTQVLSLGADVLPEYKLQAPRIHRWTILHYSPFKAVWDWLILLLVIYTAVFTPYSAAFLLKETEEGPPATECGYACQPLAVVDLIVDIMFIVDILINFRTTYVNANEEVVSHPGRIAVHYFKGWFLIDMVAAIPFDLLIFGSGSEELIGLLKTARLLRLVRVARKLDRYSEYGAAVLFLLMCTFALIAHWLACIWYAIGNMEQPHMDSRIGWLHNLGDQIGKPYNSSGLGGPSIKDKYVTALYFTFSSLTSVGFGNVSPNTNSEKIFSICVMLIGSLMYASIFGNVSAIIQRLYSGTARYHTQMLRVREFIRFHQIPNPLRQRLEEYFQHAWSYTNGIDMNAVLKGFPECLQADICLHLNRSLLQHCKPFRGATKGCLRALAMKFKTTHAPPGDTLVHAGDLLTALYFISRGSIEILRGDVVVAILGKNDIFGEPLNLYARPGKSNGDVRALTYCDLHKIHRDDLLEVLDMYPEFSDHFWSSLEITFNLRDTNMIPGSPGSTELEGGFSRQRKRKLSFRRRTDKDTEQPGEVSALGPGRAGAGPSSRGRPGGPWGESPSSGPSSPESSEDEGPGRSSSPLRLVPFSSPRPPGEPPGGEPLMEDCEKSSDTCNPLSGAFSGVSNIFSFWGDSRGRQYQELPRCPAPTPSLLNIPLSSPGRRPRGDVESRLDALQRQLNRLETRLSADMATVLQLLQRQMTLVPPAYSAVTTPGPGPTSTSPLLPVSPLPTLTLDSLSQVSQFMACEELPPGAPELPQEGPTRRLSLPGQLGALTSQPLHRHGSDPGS

By IC50 is commonly meant the midpoint of a concentration-inhibition curve. As a reminder, the Ki is the dissociation constant of the complex between target and ligand, obtained from inhibition or displacement. Take `CCO` [ALCOHOL]: the half-maximal inhibitory concentration (IC50) entry (in data set [1]; against B2 bradykinin receptor; in data set [2] (cho-k1); in data set [3]; on Leukotriene C4 synthase; in data set [4]) was “Not Active” each time. For the same compound, the IC50 entry in data set [5] and in data set [6] was “Not Active” each time. In addition, the inhibition constant (Ki) entry in data set [1], in data set [4] and in data set [6] was “Not Active” throughout.
For `NC(=O)NC(=O)Cc1ccccc1` [PHENACEMIDE], the half-inhibitory concentration (IC50) entry (in data set [1]; at B2 bradykinin receptor; in data set [2] (cho-k1); in data set [3]; against Leukotriene C4 synthase; in data set [4]) was “Not Active” in each case. For the same compound, the 50% inhibitory concentration (IC50) entry in data set [5] and in data set [6] was “Not Active” each time. For the same compound, the Ki entry in data set [1], in data set [4] and in data set [6] was “Not Active” each time.
With `CC(CN1c2ccccc2Sc2ccccc21)N(C)C` (stereo not given) [PROMETHAZINE], the 50% inhibitory concentration (IC50) is 2.78 µM in data set [1] (read-out: IC50); “Not Active” against B2 bradykinin receptor; “Not Active” in data set [2] (cho-k1); “Not Active” in data set [3]; “Not Active” against Leukotriene C4 synthase; “Not Active” in data set [4]. In addition, the concentration for half-maximal inhibition (IC50) entry in data set [5] and in data set [6] was “Not Active” each time. Also, the figures for the Ki in data set [1] (read-out: Ki), in data set [4] and in data set [6] were 2.47 µM, “Not Active” and “Not Active”, respectively.
As for `Nc1ccc(Cc2ccc(N)cc2)cc1`, the IC50 entry (in data set [1]; on B2 bradykinin receptor; in data set [2] (cho-k1); in data set [3]; at Leukotriene C4 synthase; in data set [4]) was “Not Active” each time. Moreover, the IC50 entry in data set [5] and in data set [6] was “Not Active” each time. In addition, the inhibition constant (Ki) result in data set [1], in data set [4] and in data set [6] was “Not Active” in each case.
On to `C[N+](C)(C)CCOP(=O)([O-])OC[C@H](O)CO`, for which the IC50 entry (in data set [1]; against B2 bradykinin receptor; in data set [2] (cho-k1); in data set [3]; on Leukotriene C4 synthase; in data set [4]) was “Not Active” throughout. In addition, the concentration for half-maximal inhibition (IC50) entry in data set [5] and in data set [6] was “Not Active” each time. For the same compound, the inhibition constant (Ki) result in data set [1], in data set [4] and in data set [6] was “Not Active” each time.
Turning to `Clc1cc(Cl)c(OCC#CI)cc1Cl` [HALOPROGIN], the 50% inhibitory concentration (IC50) entry (in data set [1]; on B2 bradykinin receptor; in data set [2] (cho-k1); in data set [3]; at Leukotriene C4 synthase; in data set [4]) was “Not Active” in each case. For the same compound, the IC50 entry in data set [5] and in data set [6] was “Not Active” throughout. Moreover, the Ki entry in data set [1], in data set [4] and in data set [6] was “Not Active” each time.
Turning to `Cc1cc(C(C)(C)C)c(O)c(C)c1CC1=NCCN1` [OXYMETAZOLINE], the IC50 result (in data set [1]; on B2 bradykinin receptor; in data set [2] (cho-k1); in data set [3]; against Leukotriene C4 synthase; in data set [4]) was “Not Active” throughout. Moreover, the IC50 result in data set [5] and in data set [6] was “Not Active” each time. The Ki result in data set [1], in data set [4] and in data set [6] was “Not Active” each time.
`C[N+](C)(C)CCOC(N)=O.[Cl-]` [CARBACHOL]: the half-maximal inhibitory concentration (IC50) entry (in data set [1]; at B2 bradykinin receptor; in data set [2] (cho-k1); in data set [3]; on Leukotriene C4 synthase; in data set [4]) was “Not Active” each time. The half-inhibitory concentration (IC50) result in data set [5] and in data set [6] was “Not Active” in each case. Moreover, the Ki entry in data set [1], in data set [4] and in data set [6] was “Not Active” each time.
For `CCN(CCO)CCCC(C)Nc1ccnc2cc(Cl)ccc12` (stereo not given) [HYDROXYCHLOROQUINE], the half-inhibitory concentration (IC50) result (in data set [1]; on B2 bradykinin receptor; in data set [2] (cho-k1); in data set [3]; against Leukotriene C4 synthase; in data set [4]) was “Not Active” throughout. Also, the 50% inhibitory concentration (IC50) entry in data set [5] and in data set [6] was “Not Active” each time. For the same compound, the Ki result in data set [1], in data set [4] and in data set [6] was “Not Active” throughout.
For the compound `O=C1c2ccccc2C(=O)C1c1ccccc1` [PHENINDIONE], the 50% inhibitory concentration (IC50) result (in data set [1]; against B2 bradykinin receptor; in data set [2] (cho-k1); in data set [3]; at Leukotriene C4 synthase; in data set [4]) was “Not Active” throughout. Further, the IC50 result in data set [5] and in data set [6] was “Not Active” each time. The Ki entry in data set [1], in data set [4] and in data set [6] was “Not Active” each time.
`Cc1ccnc2c1NC(=O)c1cccnc1N2C1CC1` [NEVIRAPINE]: the half-inhibitory concentration (IC50) entry (in data set [1]; on B2 bradykinin receptor; in data set [2] (cho-k1); in data set [3]; on Leukotriene C4 synthase; in data set [4]) was “Not Active” each time. Also, the 50% inhibitory concentration (IC50) result in data set [5] and in data set [6] was “Not Active” throughout. Besides, the Ki result in data set [1], in data set [4] and in data set [6] was “Not Active” in each case.
On to `CO[C@H]1O[C@@H]2O[C@@]3(C)CC[C@H]4[C@H](C)CC[C@@H]([C@H]1C)[C@@]24OO3`, for which the 50% inhibitory concentration (IC50) entry (in data set [1]; on B2 bradykinin receptor; in data set [2] (cho-k1); in data set [3]; at Leukotriene C4 synthase; in data set [4]) was “Not Active” each time. The half-inhibitory concentration (IC50) entry in data set [5] and in data set [6] was “Not Active” each time. Besides, the inhibition constant (Ki) result in data set [1], in data set [4] and in data set [6] was “Not Active” each time.
On to `CN(CCOc1ccc(C[C@H](Nc2ccccc2C(=O)c2ccccc2)C(=O)O)cc1)c1ccccn1`, for which the IC50 result in data set [1] is “Not Active”; against B2 bradykinin receptor, “Not Active”; in data set [2] (read-out: IC50), 10.9 µM; in data set [3] it was “Not Active”; against Leukotriene C4 synthase it was “Not Active”; in data set [4] it was “Not Active”. For the same compound, the IC50 result in data set [5] and in data set [6] was “Not Active” in each case. Also, the inhibition constant (Ki) entry in data set [1] is “Not Active”; in data set [2] (read-out: Ki) it was 5.45 µM; in data set [4], “Not Active”; in data set [6], “Not Active”.
With `c1ccc2sc(SSc3nc4ccccc4s3)nc2c1` [BENZOTHIAZYL DISULFIDE], the half-maximal inhibitory concentration (IC50) result (in data set [1]; against B2 bradykinin receptor; in data set [2] (cho-k1); in data set [3]; against Leukotriene C4 synthase; in data set [4]) was “Not Active” throughout. Moreover, the IC50 result in data set [5] and in data set [6] was “Not Active” in each case. Also, the Ki entry in data set [1], in data set [4] and in data set [6] was “Not Active” each time.
